According to PubChem BioAssay AID248 (DTP/NCI, 2004):
Values joined by “and” are separate entries in the source; they are usually repeats but may differ in a detail not shown here. Identical values can stand only once. Toxic doses and inconclusive results are not listed. Cut-off read from the data, not from the text of the source: active = T/C of 150% or more; inactive = T/C below 125%.

Tested on: L1210 leukemia ip in BDF1 mice, survival T/C
Assay: NCI In Vivo Anticancer Drug Screen. Data for tumor model L1210 Leukemia (intraperitoneal) in B6D2F1 (BDF1) mice
Conditions: endpoint: mean survival time, higher = longer survival
Procedure, shortened: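 Survival endpoint. Drug-treated group vs vehicle group, expressed as T divided by C. Tumor passaged by transplantation.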

[1] = dose: 100.0 mg/kg/injection, schedule: Q04DX002 (ip), vehicle: Klucel (hydroxypropylcellulose) (HPC)
[2] = dose: 75.0 mg/kg/injection, schedule: Q01DX001 (ip), vehicle: saline
[3] = dose: 50.0 mg/kg/injection, schedule: Q01DX009 (ip), vehicle: Klucel (hydroxypropylcellulose) (HPC)
[4] = dose: 100.0 mg/kg/injection, schedule: Q01DX009 (ip), vehicle: Klucel (hydroxypropylcellulose) (HPC)
[5] = dose: 100.0 mg/kg/injection, schedule: Q04DX003 (ip), vehicle: Klucel (hydroxypropylcellulose) (HPC)
[6] = dose: 200.0 mg/kg/injection, schedule: Q01DX009 (ip), vehicle: Klucel (hydroxypropylcellulose) (HPC)
[7] = dose: 200.0 mg/kg/injection, schedule: Q04DX003 (ip), vehicle: Klucel (hydroxypropylcellulose) (HPC)
[8] = dose: 100.0 mg/kg/injection, schedule: Q01DX001 (ip), vehicle: saline
[9] = dose: 200.0 mg/kg/injection, schedule: Q01DX001 (ip), vehicle: saline
[10] = dose: 400.0 mg/kg/injection, schedule: Q01DX001 (ip), vehicle: saline
[11] = dose: 100.0 mg/kg/injection, schedule: Q01DX001 (ip), vehicle: other
[12] = dose: 200.0 mg/kg/injection, schedule: Q01DX001 (ip), vehicle: other
[13] = dose: 100.0 mg/kg/injection, schedule: Q01DX001 (ip), vehicle: saline with Tween-80
[14] = dose: 100.0 mg/kg/injection, schedule: Q01DX009 (ip), vehicle: saline with Tween-80
[15] = dose: 200.0 mg/kg/injection, schedule: Q01DX001 (ip), vehicle: saline with Tween-80
[16] = dose: 200.0 mg/kg/injection, schedule: Q01DX009 (ip), vehicle: saline with Tween-80
[17] = dose: 400.0 mg/kg/injection, schedule: Q01DX001 (ip), vehicle: saline with Tween-80
[18] = dose: 400.0 mg/kg/injection, schedule: Q01DX009 (ip), vehicle: saline with Tween-80
[19] = dose: 400.0 mg/kg/injection, schedule: Q04DX003 (ip), vehicle: Klucel (hydroxypropylcellulose) (HPC)
[20] = dose: 400.0 mg/kg/injection, schedule: Q01DX009 (ip), vehicle: Klucel (hydroxypropylcellulose) (HPC)

Measured: T/C

CC(c1ccccc1O)C1CCCCC1N=O (stereo unspecified)
inactive: [1] 105 % of control | dose: 200.0 mg/kg/injection, schedule: Q04DX002 (ip), vehicle: Klucel (hydroxypropylcellulose) (HPC) 102 % of control | dose: 400.0 mg/kg/injection, schedule: Q04DX002 (ip), vehicle: Klucel (hydroxypropylcellulose) (HPC) 98 % of control

O=C(O)C(O)C(O)C(O)C(O)C(O)CO.[Fe] (stereo unspecified)
inactive: [2] 95 % of control

CCN1C(=O)CC(=O)N(CC)C1=S
inactive: [3] 103 % of control | [4] 101 % of control | [5] 94 % of control | [6] 97 % of control | [7] 89 % of control

C[S+](C)c1ccccc1C(C)(C)CC(=O)O
inactive: [8] 103 % of control | [9] 98 % of control | [10] 110 % of control

OC(Cc1ccccc1)(c1ccccc1)C(O)(Cc1ccccc1)c1ccccc1 (stereo unspecified)
inactive: dose: 50.0 mg/kg/injection, schedule: Q01DX001 (ip), vehicle: saline 94 % of control | [8] 94 % of control | [9] 94 % of control | [10] 94 % of control

CC(C)C1CCC(C)C(NC(N)=O)C1 (stereo unspecified)
inactive: [8] 95 % of control | [9] 97 % of control | [10] 106 % of control

Cn1c(=O)c2c(nc(OC3CCCC3)n2C)n(C)c1=O
inactive: dose: 50.0 mg/kg/injection, schedule: Q01DX001 (ip), vehicle: other 98 % of control | [11] 98 % of control | [12] 87 % of control

CCc1cc(C)cc(OC(=O)Nc2cc(Cl)ccc2OC)c1
inactive: [13] 104 % of control | [14] 95 % of control | dose: 100.0 mg/kg/injection, schedule: Q04DX002 (ip), vehicle: saline with Tween-80 94 % of control and 95 % of control | [15] 93 % of control | [16] 93 % of control | dose: 200.0 mg/kg/injection, schedule: Q04DX002 (ip), vehicle: saline with Tween-80 95 % of control and 90 % of control | [17] 95 % of control | [18] 119 % of control | dose: 400.0 mg/kg/injection, schedule: Q04DX002 (ip), vehicle: saline with Tween-80 95 % of control and 86 % of control

NC(COC(c1ccccc1)(c1ccccc1)c1ccccc1)C(=O)O (stereo unspecified)
inactive: dose: 25.0 mg/kg/injection, schedule: Q01DX009 (ip), vehicle: other 100 % of control | dose: 200.0 mg/kg/injection, schedule: Q01DX009 (ip), vehicle: other 98 % of control

CC(Cl)CN(CC(C)Cl)c1ccc(S(=O)(=O)Nc2ncccn2)cc1 (stereo unspecified)
inactive: dose: 5.0 mg/kg/injection, schedule: Q01DX009 (ip), vehicle: gum acacia 107 % of control | dose: 5.0 mg/kg/injection, schedule: Q01DX009 (ip), vehicle: saline 104 % of control | dose: 8.0 mg/kg/injection, schedule: Q01DX009 (ip), vehicle: gum acacia 100 % of control | dose: 10.0 mg/kg/injection, schedule: Q01DX009 (ip), vehicle: saline 98 % of control | dose: 12.0 mg/kg/injection, schedule: Q01DX009 (ip), vehicle: gum acacia 96 % of control | dose: 20.0 mg/kg/injection, schedule: Q01DX009 (ip), vehicle: saline 105 % of control | dose: 30.0 mg/kg/injection, schedule: Q01DX009 (ip), vehicle: saline 111 % of control | dose: 45.0 mg/kg/injection, schedule: Q01DX009 (ip), vehicle: saline 114 % of control and 117 % of control | dose: 80.0 mg/kg/injection, schedule: Q01DX009 (ip), vehicle: other 122 % of control | dose: 80.0 mg/kg/injection, schedule: Q01DX009 (ip), vehicle: saline with Tween-80 123 % of control | dose: 80.0 mg/kg/injection, schedule: Q01DX009 (ip), vehicle: saline 106 % of control and 108 % of control | dose: 90.0 mg/kg/injection, schedule: Q01DX009 (ip), vehicle: saline 120 % of control | dose: 120.0 mg/kg/injection, schedule: Q01DX009 (ip), vehicle: other 121 % of control | dose: 120.0 mg/kg/injection, schedule: Q01DX009 (ip), vehicle: saline 111 % of control | dose: 180.0 mg/kg/injection, schedule: Q01DX009 (ip), vehicle: other 98 % of control

NCCSC1(O)C(=O)c2ccccc2-c2ccccc21 (stereo unspecified)
inactive: dose: 37.5 mg/kg/injection, schedule: Q04DX003 (ip), vehicle: saline 94 % of control | [2] 101 % of control | dose: 75.0 mg/kg/injection, schedule: Q04DX003 (ip), vehicle: saline 103 % of control | dose: 150.0 mg/kg/injection, schedule: Q01DX001 (ip), vehicle: saline 95 % of control | dose: 150.0 mg/kg/injection, schedule: Q04DX003 (ip), vehicle: saline 95 % of control

Cc1ccc(S(=O)(=O)Nc2ccc3ncsc3c2[N+](=O)[O-])cc1
inactive: [14] 108 % of control | dose: 100.0 mg/kg/injection, schedule: Q04DX003 (ip), vehicle: saline with Tween-80 97 % of control | [16] 93 % of control | dose: 200.0 mg/kg/injection, schedule: Q04DX003 (ip), vehicle: saline with Tween-80 102 % of control | [18] 103 % of control | dose: 400.0 mg/kg/injection, schedule: Q04DX003 (ip), vehicle: saline with Tween-80 102 % of control

Nc1cc(N)ncn1
inactive: dose: 25.0 mg/kg/injection, schedule: Q01DX009 (ip), vehicle: Klucel (hydroxypropylcellulose) (HPC) 101 % of control | [3] 98 % of control | [4] 102 % of control

C/C=C/C=C\COC(=O)C(C)Cl (stereo unspecified)
inactive: dose: 100.0 mg/kg/injection, schedule: Q04DX002 (ip), vehicle: saline 108 % of control | dose: 200.0 mg/kg/injection, schedule: Q04DX002 (ip), vehicle: saline 103 % of control | dose: 400.0 mg/kg/injection, schedule: Q04DX002 (ip), vehicle: saline 108 % of control

NCCCCC(=O)NC(CCCCNC(=O)OCc1ccccc1)C(=O)NCCCCC(=O)NC(CCCCNC(=O)OCc1ccccc1)C(=O)NCCCCC(=O)NC(CCCCNC(=O)OCc1ccccc1)C(=O)NCCCCC(=O)NC(CCCCNC(=O)OCc1ccccc1)C(=O)NCCCCC(=O)NC(CCCCNC(=O)OCc1ccccc1)C(=O)NCCCCC(=O)NC(CCCCNC(=O)OCc1ccccc1)C(=O)NCCCCC(=O)NC(CCCCNC(=O)OCc1ccccc1)C(=O)O (stereo unspecified)
inactive: [8] 92 % of control | [9] 90 % of control | [10] 95 % of control

O=S(=O)(F)c1ccc(-c2cc(Cl)c3cc(F)ccc3n2)cc1
inactive: [5] 105 % of control | [7] 106 % of control | [19] 106 % of control

O=Cc1ccc(OS(=O)(=O)c2ccc([N+](=O)[O-])cc2)cc1
inactive: [4] 97 % of control | [6] 98 % of control | [20] 90 % of control

CCCCCCC(N)C(=O)O (stereo unspecified)
inactive: dose: 25.0 mg/kg/injection, schedule: Q04DX002 (ip), vehicle: Klucel (hydroxypropylcellulose) (HPC) 95 % of control | dose: 50.0 mg/kg/injection, schedule: Q04DX002 (ip), vehicle: Klucel (hydroxypropylcellulose) (HPC) 104 % of control | [1] 100 % of control | [5] 96 % of control | [7] 100 % of control | [19] 103 % of control

Oc1cc2c3c(c1)-c1c(ccc(O)c1O)CC3NCC2 (stereo unspecified)
inactive: dose: 6.25 mg/kg/injection, schedule: Q04DX003 (ip), vehicle: DMSO 100 % of control | dose: 12.5 mg/kg/injection, schedule: Q04DX003 (ip), vehicle: DMSO 100 % of control | dose: 25.0 mg/kg/injection, schedule: Q04DX003 (ip), vehicle: DMSO 93 % of control | dose: 50.0 mg/kg/injection, schedule: Q04DX003 (ip), vehicle: DMSO 88 % of control

COC1(OC)C2(Cl)CCC1(Cl)C(Cl)=C2Cl
inactive: [11] 98 % of control | [13] 100 % of control | [4] 100 % of control | [5] 102 % of control | [12] 98 % of control | [15] 100 % of control | [6] 103 % of control | [7] 94 % of control | dose: 400.0 mg/kg/injection, schedule: Q01DX001 (ip), vehicle: other 92 % of control | [17] 97 % of control | [20] 90 % of control | [19] 96 % of control
